Assay [1] has as its target T1, cannabinoid receptor-1 (CB1), CB1R-containing cell membrane (Homo sapiens, UniProt P21554).
T1 construct: purchased Applied Cell Sciences Inc, Rockville, Md
The assay is described as follows: biochemical. To be noted: for Ki: displacement of 3H-CP55940 on CB1 receptors, from serial dilutions, non-linear regression. The class given is binding. Here is the method: Method A using cell membranes. A compound is dissolved in DMSO and diluted to 1 M as a stock solution. […] A CB1R-containing cell membrane (Applied Cell Sciences Inc, Rockville, Md.) is diluted with binding buffer to a protein concentration of 28 μg/ml.
(§1) The mixture is incubated for 90 min at room temperature, then filtered through Whatman glass fiber C disc filter in a vacuum manifold. The filter is washed three times each with 2.5 ml cold wash buffer (binding buffer with only 2.5 mg/ml BSA). The vacuum-dried filter is transferred to a scintillation vial, treated with 3 ml Eco-Scint, and the radioactivity is read on a Beckman LS6500 scintillation counter from which an IC50 value is calculated. The corresponding Ki values are obtained from serial dilutions according to this method, and calculated through the use of a non-linear regression program (Graphpad Inc, San Diego, Calif.).

The target of assay [2] is T2, hCB1 (membranes from hCB1 stably transfected CHO cells) (Homo sapiens, UniProt P21554).
T2 construct: purchased Perkin Elmer/NEN; host or cells: CHO cells, stably transfected
T2 sequence (P21554 whole entry): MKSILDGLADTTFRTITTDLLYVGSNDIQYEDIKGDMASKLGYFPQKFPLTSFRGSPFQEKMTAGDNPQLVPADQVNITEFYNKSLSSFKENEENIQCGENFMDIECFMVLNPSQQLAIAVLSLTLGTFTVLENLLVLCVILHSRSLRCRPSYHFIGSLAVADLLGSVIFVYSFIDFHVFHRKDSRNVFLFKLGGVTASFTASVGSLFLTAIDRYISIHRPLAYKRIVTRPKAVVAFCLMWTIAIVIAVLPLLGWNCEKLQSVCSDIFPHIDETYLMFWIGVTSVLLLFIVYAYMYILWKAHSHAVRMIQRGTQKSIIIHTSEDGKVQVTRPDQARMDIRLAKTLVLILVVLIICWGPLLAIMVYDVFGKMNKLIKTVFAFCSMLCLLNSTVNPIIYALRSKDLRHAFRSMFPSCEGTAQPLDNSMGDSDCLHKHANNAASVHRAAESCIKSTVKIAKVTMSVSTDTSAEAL
In words: Cannabinoid Receptor-1 (CB1) Functional Activity Assay, Method A (35S-GTPγS, WIN 55212-2). It counts as biochemical. To be noted: for antagonism of WIN 55212-2 at CB1 receptors: FIGS. 3b-3d; for antagonism at CB1 receptors: FIGS. 5a, 6a, 7a, no WIN 55212-2 named in the legend; for antagonism of 3 μM WIN 55212-2 at CB1 receptors: FIGS. 5b, 6b, 7b. The protocol: Membranes are diluted in ice-cold assay buffer (10 mM HEPES, 100 mM NaCl, 10 mM MgCl2, 2 μM GDP, 0.2% FAF-BSA, 10 μg/mL saponin) to 38 μg membranes/mL. Dilute ^35S-GTPγ5 to 1 nM in assay buffer. […] These solutions are incubated for 30 minutes at 30° C. The filters are washed 6 times with 10 mM sodium phosphate buffer (pH 7.4) at ambient temperature. The filters are counted using a liquid scintillation counter on the ^35S channel. Each compound/concentration is run in triplicate. A positive antagonism control may be run for AM251 at the same concentrations as test compounds under the same conditions.
(GTPγS resists hydrolysis and so accumulates on activated G proteins.)

Assay [3] deals with T3, cannabinoid receptor-2 (CB2), CB2R-containing cell membrane; hCB2 receptors (Homo sapiens, UniProt P34972).
T3 construct: purchased Applied Cell Sciences Inc, Rockville, Md
T3 sequence (P34972 whole entry): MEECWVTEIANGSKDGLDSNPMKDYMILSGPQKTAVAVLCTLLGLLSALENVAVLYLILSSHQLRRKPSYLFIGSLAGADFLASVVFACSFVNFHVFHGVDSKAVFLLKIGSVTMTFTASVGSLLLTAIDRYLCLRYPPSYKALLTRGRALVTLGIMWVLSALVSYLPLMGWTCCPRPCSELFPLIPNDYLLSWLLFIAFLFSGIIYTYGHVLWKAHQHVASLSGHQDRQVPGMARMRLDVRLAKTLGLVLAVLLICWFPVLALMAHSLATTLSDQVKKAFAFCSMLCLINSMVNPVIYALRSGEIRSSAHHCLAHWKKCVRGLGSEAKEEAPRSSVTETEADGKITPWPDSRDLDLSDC
In words: Cannabinoid Receptor-2 (CB2) Binding Assay, Method A using cell membranes (displacement of 3H-CP55940). To be noted: for IC50: displacement of 3H-CP55940 (1 nM), CB2R-containing cell membrane; for Ki: displacement of 3H-CP55940, CB2R-containing cell membrane, from serial dilutions. The protocol:
Method A using cell membranes. A compound is dissolved in DMSO and diluted to 1 M as a stock solution. […] A CB2R-containing cell membrane (Applied Cell Sciences Inc, Rockville, Md.) is diluted with binding buffer to a protein concentration of 28 μg/ml.
as §1
For orientation: In a radioligand displacement assay an active substance lowers the binding of a labelled ligand.

The target of assay [4] is T3, cannabinoid receptor-2 (CB2), CB2R-containing cell membrane; hCB2 receptors. The description is as above.
Setting [5] is: displacement of 3H-CP55940 (1 nM) on CB1 receptors, read-out: IC50.
Setting [6] is: FIG. 8, against pre-bound CP55940 on CHO cells expressing hCB2 receptors.
Where [7] appears, read: IC50, displacement of 3H-CP55940 (1 nM) on CB1 receptors.

Values joined by “and” are separate entries in the source; they are usually repeats but may differ in a detail not shown here. Equal values may be shown once. Read-outs that look alike come from different tables or passages of the source.

The results in this text go back to patent US20100016274A1, “BETA-LACTAM CANNABINOID RECEPTOR MODULATORS” (priority 2006, published 2010).

T1 sequence (P21554 whole entry, species assumed): as the sequence (P21554 whole entry) above

Broadly, the IC50 is the concentration needed to halve the response being measured. What is called Ki is a dissociation constant, usually derived from enzyme kinetics or from competition with a known ligand. Read a high Ki as lower affinity. With `CC(C)(C)C(=O)C(C(=O)OCc1ccccc1)N1C(=O)C(c2cccs2)C1C=Cc1ccccc1` (mixture of isomers) [Example 70C, Benzyl 2(RS)-tert-Butylcarbonyl-2-[3(S*)-2-thienyl)-4(R*)-(2-styryl)azetidin-2-on-1-yl]acetate], the IC50 in assay [1] (setting [5]) was 1350 nM and 1400 nM. For the same compound, the Ki in assay [1] is 676 nM and 670 nM. Moreover, in assay [2], the “antagonism of WIN 55212-2 at CB1 receptors” value is “antagonism”, the “antagonism at CB1 receptors” value is reported as “antagonism” and the “antagonism of 3 μM WIN 55212-2 at CB1 receptors” value is “antagonism”.

On to `Cc1c(C(=O)NN2CCCCC2)nn(-c2ccc(Cl)cc2Cl)c1-c1ccc(I)cc1` [AM251, N-(piperidin-1-yl)-1-(2,4-dichlorophenyl)-5-(4-iodophenyl)-4-methyl-1H-pyrazole-3-carboxamide, reference compound], for which, in assay [2], the “antagonism of WIN 55212-2 at CB1 receptors” value is “antagonism”. In assay [3], `CC(C)(C)OC(=O)CCC(C(=O)N1CCN(CCc2ccccc2)CC1)N1C(=O)C(N2C(=O)OCC2c2ccccc2)C1C=Cc1ccccc1` [Example 19E, 2(S)-(tert-Butoxycarbonylethyl)-2-[3(S)-(4(S)-phenyloxazolidin-2-on-3-yl)-4(R)-(2-styryl)azetidin-2-on-1-yl]acetic acid N-[4-(2-phenylethyl)]piperazinamide] returned an IC50 below 10000 nM. On the same count and under the same terms, next, `CC(C)(C)OC(=O)CC(C(=O)NCc1cccc(C(F)(F)F)c1)N1C(=O)C(N2C(=O)OCC2c2ccccc2)C1C=Cc1ccccc1` [Example 19F, 2(R)-(tert-Butoxycarbonylmethyl)-2-[3(S)-(4(S)-phenyloxazolidin-2-on-3-yl)-4(R)-(2-styryl)azetidin-2-on-1-yl]acetic acid N-(3-trifluoromethylbenzyl)amide]: below 1000 nM; `CC(C)(C)OC(=O)CCC(C(=O)NCc1cccc(C(F)(F)F)c1)N1C(=O)C(N2C(=O)OCC2c2ccccc2)C1C=Cc1ccccc1` [Example 19H, 2(R)-(tert-Butoxycarbonylethyl)-2-[3 (S)-(4(S)-phenyloxazolidin-2-on-3-yl)-4(R)-(2-styryl)azetidin-2-on-1-yl]acetic acid N-(3-trifluoromethylbenzyl)amide]: below 1000 nM; `O=C(CC(C(=O)N1CCN(CCc2ccccc2)CC1)N1C(=O)C(N2C(=O)OCC2c2ccccc2)C1C=Cc1ccccc1)NCc1cccc(C(F)(F)F)c1` (stereo not shown) [Example 28A]: below 10000 nM. In assay [3], `O=C(NCc1cccc(C(F)(F)F)c1)C(CC(=O)N1CCC(N2CCCCC2)CC1)N1C(=O)C(N2C(=O)OCC2c2ccccc2)C1C=Cc1ccccc1` (stereo not shown) [Example 31A] showed a concentration for half-maximal inhibition (IC50) of 379 nM and a Ki of 253 nM. In assay [4] (setting [6]), `O=C(NCc1cccc(C(F)(F)F)c1F)C(CC(=O)N1CCC(N2CCCCC2)CC1)N1C(=O)C(N2C(=O)OCC2c2ccccc2)C1C=Cc1ccccc1` [Example 33G, 2(R)-[[4-(Piperidinyl)piperidinyl]carbonylmethyl]-2-[3 (S)-(4(S)-phenyloxazolidin-2-on-3-yl)-4(R)-(2-styryl)azetidin-2-on-1-yl]acetic acid N-(2-fluoro-3-trifluoromethylbenzyl)carboxamide] showed an IC50 of 273 nM and a Ki of 182 nM. For `O=C(CC[C@@H](C(=O)N1CCN(C2CCCCC2)CC1)N1C(=O)[C@@H](N2C(=O)OC[C@@H]2c2ccccc2)[C@H]1/C=C/c1ccccc1)NCc1cc(F)cc(C(F)(F)F)c1` [Example 37S], the IC50 in assay [1] (setting [5]) was 2300 nM. For the same compound, the Ki in assay [1] was 1150 nM. Moreover, in assay [2], the “antagonism of WIN 55212-2 at CB1 receptors” value was “antagonism”, the “antagonism at CB1 receptors” value is “antagonism” and the “antagonism of 3 μM WIN 55212-2 at CB1 receptors” value is on record as “antagonism”. `O=C(CC[C@@H](C(=O)N1CCN(C2CCCCC2)CC1)N1C(=O)[C@@H](N2C(=O)OC[C@@H]2c2ccccc2)[C@H]1/C=C/c1ccccc1)NCc1ccc(Cl)c(C(F)(F)F)c1` [Example 37U]: in assay [1] (setting [5]), the IC50 is 2100 nM. The same compound yielded a Ki in assay [1] of 1070 nM. Besides, in assay [2], the “antagonism at CB1 receptors” value is on record as “antagonism” and the “antagonism of 3 μM WIN 55212-2 at CB1 receptors” value is “antagonism”. In assay [4] (quoted for the single-dose negative control of the CB2 functional assay, assay of the IC50 not stated), `O=C(NCc1ccc(Cl)c(C(F)(F)F)c1)[C@H](CCC(=O)N1CCN(C2CCCCC2)CC1)N1C(=O)[C@@H](N2C(=O)OC[C@@H]2c2ccccc2)[C@H]1/C=C/c1ccccc1` [Example 38J] displayed an IC50 above 10000 nM. In assay [3], `O=C(NC1(c2cccc(F)c2)CCCC1)C(CCC(=O)N1CCN(C2CCCCC2)CC1)N1C(=O)C(N2C(=O)OCC2c2ccccc2)C1C=Cc1ccccc1` (stereo not shown) [Example 42H] gave a half-maximal inhibitory concentration (IC50) of around 10000 nM. Compound `O=C(NC1(c2ccc(Cl)cc2)CC1)C(CCC(=O)N1CCN(C2CCCCC2)CC1)N1C(=O)C(N2C(=O)OCC2c2ccccc2)C1C=Cc1ccccc1` (stereo not shown) [Example 42I] yielded a half-inhibitory concentration (IC50) in assay [3] of around 10000 nM.

Turning to `O=C(NC1(c2ccc(Cl)cc2)CCCC1)C(CCC(=O)N1CCN(C2CCCCC2)CC1)N1C(=O)C(N2C(=O)OCC2c2ccccc2)C1C=Cc1ccccc1` (stereo not shown) [Example 42J], the IC50 in assay [3] is around 10000 nM.

Turning to `Cc1ccc(C2(NC(=O)C(CCC(=O)N3CCN(C4CCCCC4)CC3)N3C(=O)C(N4C(=O)OCC4c4ccccc4)C3C=Cc3ccccc3)CC2)cc1` (stereo not shown) [Example 42K], the 50% inhibitory concentration (IC50) in assay [3] is around 10000 nM. The same measure, in the same setting: next, `Cc1ccc(C2(NC(=O)C(CCC(=O)N3CCN(C4CCCCC4)CC3)N3C(=O)C(N4C(=O)OCC4c4ccccc4)C3C=Cc3ccccc3)CCCC2)cc1` (stereo not shown) [Example 42L]: around 10000 nM; `COc1ccc(C2(NC(=O)C(CCC(=O)N3CCN(C4CCCCC4)CC3)N3C(=O)C(N4C(=O)OCC4c4ccccc4)C3C=Cc3ccccc3)CC2)cc1` (stereo not shown) [Example 42M]: around 10000 nM; `O=C(NCc1cccc(C(F)(F)F)c1)C(CCC(=O)N1CCN(CCc2ccccc2)CC1)N1C(=O)C(N2C(=O)OCC2c2ccccc2)C1C=Cc1ccccc1` (stereo not shown) [Example 44B]: below 1000 nM. Same read-out and setting: under `CCN1CCN(C(=O)CCC(C(=O)NCc2cccc(C(F)(F)F)c2)N2C(=O)C(N3C(=O)OCC3c3ccccc3)C2C(Br)=Cc2ccccc2)CC1` (stereo not shown) [Example 45U] stands below 10000 nM. In the case of `O=C(C(CCCc1ccccc1)N1C(=O)C(N2C(=O)OCC2c2ccccc2)C1C=Cc1ccccc1)N1CCN(C2CCCCC2)CC1` (stereo not shown) [Example 62E], in assay [3], the concentration for half-maximal inhibition (IC50) was found to be 539 nM and the inhibition constant (Ki) worked out at 360 nM. On to `O=C(CN1C(=O)C(c2cccs2)C1C=Cc1ccccc1)OCc1ccccc1` (stereo not drawn) [Example 70B, Benzyl 2-[3(S*)-2-Thienyl)-4(R*)-(2-styryl)azetidin-2-on-1-yl]acetate], for which the IC50 in assay [1] (setting [7]) was below 10000 nM; in assay [3] it was around 1000 nM. In assay [1] (setting [7]), `O=C(CC[C@@H](C(=O)N1CCN(CCC2CCCCC2)CC1)N1C(=O)[C@@H](N2C(=O)OC[C@@H]2c2ccccc2)[C@H]1/C=C/c1ccccc1)NCc1cc(F)cc(C(F)(F)F)c1` [Example 73E] had an IC50 below 10000 nM.

Take `O=C(CC[C@@H](C(=O)N1CCN(c2ccccn2)CC1)N1C(=O)[C@@H](N2C(=O)OC[C@@H]2c2ccccc2)[C@H]1/C=C/c1ccccc1)NCc1cc(F)cc(C(F)(F)F)c1` [Example 73F]: in assay [1] (setting [5]), the half-maximal inhibitory concentration (IC50) is around 10000 nM. Consider `O=C(CC[C@@H](C(=O)N1CCN(CCc2cccs2)CC1)N1C(=O)[C@@H](N2C(=O)OC[C@@H]2c2ccccc2)[C@H]1/C=C/c1ccccc1)NCc1cc(F)cc(C(F)(F)F)c1` [Example 73G], for which the IC50 in assay [1] (setting [5]) is around 10000 nM. On the same count and under the same terms, next, `C[C@@H](NC(=O)[C@H](CCC(=O)N1CCN(C2CCCCC2)CC1)N1C(=O)[C@@H](N2C(=O)OC[C@@H]2c2cccc(Cl)c2)[C@H]1/C=C/c1ccccc1)c1ccccc1` [Example 73H]: around 10000 nM.
